In patent publication US6114517A, “Methods of modulating tumor necrosis factor α-induced expression of cell adhesion molecules” (Isis Pharmaceuticals Inc., priority 1998, dated 2000):

Tests used:
Format in all cases: cell-based, human
Ki-ras protein = Ki-ras protein levels by Western blot in HMVEC; conditions: same blot stripped and blotted with Ki-ras-specific antibody
Description: (§1) For determination of protein levels by Western blot, cellular extracts were prepared using […] of RIPA extraction buffer per 100-mm dish. The protein concentration was quantified by Bradford assay using the BioRad kit (BioRad, Hercules, Calif.). Equal amounts of protein were loaded on 10% or 12% SDS-PAGE mini-gel (Novex, San Diego, Calif.). Once transferred to PVDF membranes (Millipore, Bedford, Mass.), the membranes were then treated for a minimum of 2 hours with specific primary antibody followed by incubation with secondary antibody conjugated to HRP. The results were visualized by Enhanced Chemiluminescent (ECL) detection (New England BioLab, Beverly, Mass.). In some experiments, the blots were stripped in stripping buffer (2% SDS, 12.5 mM Tris, pH 6.8) for 30 minutes at 50° C. After extensive washing, the blots were blocked and blotted with different primary antibody.
To examine the effect of ISIS 15168 (SEQ ID NO. 4) on Ha-ras protein levels, total ras protein was immunoprecipitated using a pan-ras monoclonal antibody (Oncogene Science, Cambridge, Mass.). The precipitated proteins were analyzed by SDS-PAGE, and Ha-ras protein levels were determined by western blot using a monoclonal antibody specific for Ha-ras (Oncogene Science, Cambridge, Mass.). […] The kinetics of Ha-ras reduction was slower than that of c-raf. […]

Ha-ras protein = Ha-ras protein levels, immunoprecipitation and Western blot in HMVEC; conditions: for Ha-ras protein expression: 48 hours following treatment
Description: as §1
To examine the effect of ISIS 15168 (SEQ ID NO. 4) on Ha-ras protein levels, total ras protein was immunoprecipitated using a pan-ras monoclonal antibody (Oncogene Science, Cambridge, Mass.). The precipitated proteins were analyzed by SDS-PAGE, and Ha-ras protein levels were determined by western blot using a monoclonal antibody specific for Ha-ras (Oncogene Science, Cambridge, Mass.). […] The kinetics of Ha-ras reduction was slower than that of c-raf. The control oligonucleotide, ISIS 17552 (SEQ ID NO. 5), had no effect on Ha-ras protein level. The same blot was stripped and blotted a second time with a Ki-ras-specific antibody (Oncogene Science, Cambridge, Mass.).

Ha-ras mRNA = Ha-ras mRNA levels by Northern blot in HMVEC
Description: Human dermal microvascular cells (HMVEC-d; Clonetics, San Diego, Calif.) were cultivated in endothelial basal media (EBM, Clonetics) supplemented with 10% fetal bovine serum (HyClone, Logan, Utah). Cells were grown in 100 mm petri dishes until 70-80% confluent, then washed with PBS and OPTI-MEM (Life Technologies, Inc., Gaithersburg, Md.). The cells were then incubated in the presence of OPTI-MEM and […] LIPOFECTIN (a 1:1 (w/w) liposome formulation of the cationic lipid N-[1-(2,3-dioleyloxy)propyl]-n,n,n-trimethylammonium chloride (DOTMA), and dioleoyl phosphotidylethanolamine (DOPE) in membrane filtered water (Life Technologies, Gaithersburg, Md.), per 100 nM of oligonucleotide followed by addition of oligonucleotide at the appropriate concentrations.
For determination of mRNA levels by Northern blot, total RNA was prepared from cells by the guanidinium isothiocyanate procedure or by the Qiagen RNAEASY method (Qiagen, Santa Clarita, Calif.) at the indicated times after initiation of oligonucleotide treatment. Northern blot analysis was performed as described in Current Protocols in Molecular Biology (Ausubel, F. M., et al., (eds), 1987, Greene Publishing Assoc. and Wiley Interscience, New York). A glyceraldehyde 3-phosphate dehydrogenase (G3PDH) probe was purchased from Clontech (Palo Alto, Calif., Catalog Number 9805-1). RNA was quantified and normalized to G3PDH mRNA levels using a Molecular Dynamic PHOSPHORIMAGER (Sunnyvale, Calif.).
ISIS 15168 (SEQ ID NO. 4) is a 2'-O-methoxyethyl mixed backbone chimeric antisense oligonucleotide designed to hybridize with sequences contained within the human Ha-ras mRNA. To determine the effect of ISIS 15168 (SEQ ID NO. 4) on Ha-ras expression in endothelial cells, HMVEC were treated, as described in Example 2, with oligonucleotide and northern blotting was used to measure Ha-ras mRNA levels. A Ha-ras probe was generated from the plasmid, pbc-N1 (American Type Culture Collection, Manassas, Va.; catalog #41001), following the supplied instructions.

c-raf protein = c-raf protein levels by Western blot in HMVEC
Description: as §1
ISIS 12854 (SEQ ID NO. 2) is a 2'-O-methoxyethyl mixed backbone chimeric antisense oligonucleotide designed to hybridize with 3'-untranslated sequences contained within human c-raf mRNA. To determine whether this antisense oligonucleotide is effective as a c-raf inhibitor in endothelial cells, human dermal microvascular cells (HMVEC) were treated with ISIS 12854 (SEQ ID NO. 2) as described in Example 2. C-raf mRNA and protein expression was examined by northern and Western blot analysis. The c-raf cDNA probe was generated from the plasmid, p627 (American Type Culture Collection, Manassas, Va.; catalog #41050), following the supplied instructions. The c-raf antibody was obtained from Transduction Laboratories, Inc. (Lexington, Ky.).

ToCoAsGsTsAsAsTsAsGsCsCsCoCoAoCoAoToGoG [ISIS 17552, reference compound]
effect on Ki-ras protein levels (Ki-ras protein): No effect | Ha-ras protein expression (Ha-ras protein): no effect | % mRNA Expression (Ha-ras) (Ha-ras mRNA; 1 nM): 103% | % mRNA Expression (Ha-ras) (Ha-ras mRNA; 5 nM): 115% | % mRNA Expression (Ha-ras) (Ha-ras mRNA; 25 nM): 96% | % mRNA Inhibition (Ha-ras) (Ha-ras mRNA; 25 nM): 4% | % mRNA Expression (Ha-ras) (Ha-ras mRNA; 50 nM): 109% | % mRNA Expression (Ha-ras) (Ha-ras mRNA; 100 nM): 105%

ToCoCoCoGoCsCsTsGsTsGsAsCsAsToGoCoAoToT [ISIS 12854]
time of maximal reduction of c-raf protein levels (c-raf protein; after treatment with 150 nM oligonucleotide): 48 h | time at which reduction in c-raf protein expression was first detectable (c-raf protein; after treatment, Western blot): 24 h | persistence of reduction of c-raf protein levels (c-raf protein; following initial treatment): up to 72 hour

ToCoCsGsTsCsAsTsCsGsCsTsCoCoToCoAoGoGoG [ISIS 15168]
effect on Ki-ras protein levels (Ki-ras protein): No effect | Ha-ras protein expression (Ha-ras protein): dose-dependent reduction | persistence of reduction of Ha-ras protein (Ha-ras protein; following initial treatment): up to 72 hours | % mRNA Expression (Ha-ras) (Ha-ras mRNA; 1 nM): 61% | % mRNA Inhibition (Ha-ras) (Ha-ras mRNA; 1 nM): 39% | % mRNA Expression (Ha-ras) (Ha-ras mRNA; 5 nM): 44% | % mRNA Inhibition (Ha-ras) (Ha-ras mRNA; 5 nM): 56% | % mRNA Expression (Ha-ras) (Ha-ras mRNA; 25 nM): 19% | % mRNA Inhibition (Ha-ras) (Ha-ras mRNA; 25 nM): 81% | % mRNA Expression (Ha-ras) (Ha-ras mRNA; 50 nM): 10% | % mRNA Inhibition (Ha-ras) (Ha-ras mRNA; 50 nM): 90% | % mRNA Expression (Ha-ras) (Ha-ras mRNA; 100 nM): 9% | % mRNA Inhibition (Ha-ras) (Ha-ras mRNA; 100 nM): 91%
